Source: patent publication US20240182481A1 (Tango Therapeutics, Inc., priority 2021, published 2024)
Like-named read-outs stand apart in the source and are kept apart here.

Experiments:
[1] = tested on: MDA-MB-436 (BRCA1 mutant) cell line; assay: Viability assay in BRCA1 mutant cell line MDA-MB-436; format: cell-based; settings: BRCA1 mutant MDA-MB-436, read-out: MDA-MB-436 rel IC50
Text: (§1) Table 1 also indicates IC50 values in a viability assay for a non-isogenic pair of BRCA1 mutant (column 5—MDA-MB-436) and BRCA1 WT (column 6—HCC1954) cell lines. These values indicate the effect of treatment with compound on cell survival.

USP1-UAF1 = USP1-UAF1 (Homo sapiens, UniProt O94782); assay: Ubiquitin Rhodamine assay for USP1-UAF1 activity; format: biochemical
Chain of USP1-UAF1 (O94782 whole entry): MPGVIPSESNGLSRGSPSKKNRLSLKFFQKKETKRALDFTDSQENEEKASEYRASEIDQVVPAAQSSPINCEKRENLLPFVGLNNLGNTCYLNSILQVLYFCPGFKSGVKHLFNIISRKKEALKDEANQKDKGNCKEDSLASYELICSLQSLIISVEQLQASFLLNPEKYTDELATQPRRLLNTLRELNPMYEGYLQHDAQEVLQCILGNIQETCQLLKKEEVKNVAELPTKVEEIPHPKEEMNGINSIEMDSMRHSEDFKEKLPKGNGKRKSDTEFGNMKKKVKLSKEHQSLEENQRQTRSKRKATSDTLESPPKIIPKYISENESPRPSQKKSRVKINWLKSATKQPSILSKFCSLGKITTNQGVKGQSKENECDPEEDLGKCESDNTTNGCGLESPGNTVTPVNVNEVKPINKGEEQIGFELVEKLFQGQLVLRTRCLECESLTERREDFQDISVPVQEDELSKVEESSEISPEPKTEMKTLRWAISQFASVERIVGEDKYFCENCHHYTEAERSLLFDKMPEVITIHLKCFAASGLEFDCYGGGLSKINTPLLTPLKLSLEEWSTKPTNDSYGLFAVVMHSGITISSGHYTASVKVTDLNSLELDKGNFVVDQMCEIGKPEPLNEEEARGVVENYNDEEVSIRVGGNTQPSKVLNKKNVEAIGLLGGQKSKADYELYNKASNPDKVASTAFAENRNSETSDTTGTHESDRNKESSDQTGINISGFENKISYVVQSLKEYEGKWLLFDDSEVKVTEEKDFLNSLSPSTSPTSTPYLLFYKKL
Chain of USP1-UAF1 (Q8TAF3 whole entry partner): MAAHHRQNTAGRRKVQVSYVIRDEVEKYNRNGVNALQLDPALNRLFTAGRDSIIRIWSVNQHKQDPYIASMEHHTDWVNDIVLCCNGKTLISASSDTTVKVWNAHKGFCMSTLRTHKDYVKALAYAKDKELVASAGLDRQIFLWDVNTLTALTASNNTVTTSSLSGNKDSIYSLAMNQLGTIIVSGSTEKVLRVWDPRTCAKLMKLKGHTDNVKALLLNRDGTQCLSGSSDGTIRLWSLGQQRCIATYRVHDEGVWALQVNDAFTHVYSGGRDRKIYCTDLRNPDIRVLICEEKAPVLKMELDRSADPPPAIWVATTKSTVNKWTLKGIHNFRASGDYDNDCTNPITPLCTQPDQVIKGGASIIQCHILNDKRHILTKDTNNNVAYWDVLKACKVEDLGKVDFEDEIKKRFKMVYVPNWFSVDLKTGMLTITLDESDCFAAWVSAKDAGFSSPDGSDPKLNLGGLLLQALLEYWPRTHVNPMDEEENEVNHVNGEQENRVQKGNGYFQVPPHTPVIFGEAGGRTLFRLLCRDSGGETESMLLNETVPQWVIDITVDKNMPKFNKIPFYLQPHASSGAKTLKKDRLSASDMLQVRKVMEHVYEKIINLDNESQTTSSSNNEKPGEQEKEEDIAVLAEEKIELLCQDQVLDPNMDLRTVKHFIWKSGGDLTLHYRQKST
Protocol: Certain compounds of the disclosure were assessed for USP1-UAF1 activity in a Ubiquitin Rhodamine assay as described in Example 135.

monoubiquitinated PCNA = assay: AlphaLISA assay measuring monoubiquitinated PCNA in MDA-MB-436; format: cell-based; settings: read-out: Alpha LISA IC50
Text: Table 1 also indicates IC50 values for exemplary compounds in an AlphaLISA assay measuring monoubiquitinated PCNA in a BRCA1 mutant cell line (MDA-MB-436; column 7).

[2] = tested on: HCC1954 (BRCA1 WT) cell line; assay: Viability assay in BRCA1 WT cell line HCC1954; format: cell-based; settings: Homo sapiens, read-out: HCC 1954 IC50 rel IC50
Text: as §1

[3] = Homo sapiens, MDA-MB-436, viability

Compound | IC50 ([1]; viability) [µM] | IC50 (USP1-UAF1) [µM] | IC50 (monoubiquitinated PCNA) [µM] | IC50 (monoubiquitinated PCNA; Homo sapiens) [µM] | IC50 [1, 3] [µM] | IC50 [2] [µM]
Cn1cc(C(F)(F)F)nc1-c1ccc(C(=O)c2c[nH]c3cnc(-c4cccnc4C4CC4)cc23)cc1 [Compound 53] |  | ≥ 10 |  |  | ≥ 10 | ≥ 10
CC(C)Oc1ncccc1-c1ncc2[nH]cc(Cc3ccc(-c4nc(C(F)(F)F)cn4C)cc3)c2n1 [Compound 55, 2-isopropoxy-3-[7-([4-[1-methyl-4-(trifluoromethyl)imidazol-2-yl]phenyl]methyl)-5H-pyrrolo[3,2-d]pyrimidin-2-yl]pyridine] |  | < 0.03 |  |  | < 0.1 | ≥ 10
Cn1cc(C(F)(F)F)nc1-c1ccc(Cc2c[nH]c3cnc(-c4cccnc4O)nc23)cc1 [Compound 56, 3-[7-([4-[1-methyl-4-(trifluoromethyl)imidazol-2-yl]phenyl]methyl)-5H-pyrrolo[3,2-d]pyrimidin-2-yl]pyridin-2-ol] |  | ≥ 10 |  |  | ≥ 10 | ≥ 10
CNc1ncccc1-c1ncc2[nH]cc(Cc3ccc(-c4nc(C(F)(F)F)cn4C)cc3)c2n1 [Compound 58, N-methyl-3-[7-[[4-[1-methyl-4-(trifluoromethyl)imidazol-2-yl]phenyl]methyl]-5H-pyrrolo[3,2-d]pyrimidin-2-yl]pyridin-2-amine] |  | 0.1 to 10 |  |  | 0.25 to 10 | 0.25 to 10
CN(Cc1ccccc1-c1ncc2[nH]cc(Cc3ccc(-c4nc(C(F)(F)F)cn4C)cc3)c2n1)CC(F)(F)F [Compound 61] |  | 0.03 to 0.1 |  |  | 0.25 to 10 | 0.25 to 10
CC(C)c1ccccc1-c1ncc2[nH]cc(Nc3ccc(-c4nc(C(F)(F)F)cn4C)cc3)c2n1 [Compound 62, 2-(2-isopropylphenyl)-N-[4-[1-methyl-4-(trifluoromethyl)imidazol-2-yl]phenyl]-5H-pyrrolo[3,2-d]pyrimidin-7-amine] |  | 0.1 to 10 |  |  | 0.25 to 10 | 0.25 to 10
Cn1cc(C(F)(F)F)nc1-c1ccc(Cc2c[nH]c3cnc(-c4ccccc4CO)nc23)cc1 [Compound 72] |  | 0.1 to 10 |  |  | 0.25 to 10 | ≥ 10
Cn1cc(C(F)(F)F)nc1-c1ccc(Cc2c[nH]c3cnc(-c4cccnc4N4CCC45COC5)nc23)cc1 [Compound 77] |  | 0.1 to 10 |  |  | 0.25 to 10 | ≥ 10
CC(C)c1ccccc1-c1ncc2c(n1)c(C(O)c1ccc(-c3nc(C(F)(F)F)cn3C)cc1)cn2Cc1ccccc1 (centres unmarked) [Compound 80] |  | 0.1 to 10 |  |  | 0.25 to 10 | ≥ 10
CC(C)c1ccccc1-c1ncc2[nH]cc(C(=O)c3ccc(-c4nc(C(F)(F)F)cn4C)cc3)c2n1 [Compound 86, [2-(2-isopropylphenyl)-5H-pyrrolo[3,2-d]pyrimidin-7-yl]-[4-[1-methyl-4-(trifluoromethyl)imidazol-2-yl]phenyl]methanone] |  | ≥ 10 |  |  | 0.25 to 10 | 0.25 to 10
Cn1cc(C(F)(F)F)nc1-c1ccc(C(O)c2c[nH]c3cnc(-c4c(C(F)(F)F)cnn4C)nc23)cc1 (centres unmarked) [Compound 108, [4-[1-methyl-4-(trifluoromethyl)imidazol-2-yl]phenyl]-[2-[2-methyl-4-(trifluoromethyl)pyrazol-3-yl]-5H-pyrrolo[3,2-d]pyrimidin-7-yl]methanol] |  | 0.1 to 10 |  |  | 0.25 to 10 | ≥ 10
Cn1cc(C(F)(F)F)nc1-c1ccc(Cc2n[nH]c3cnc(-c4c(Cl)ccnc4C4CC4)nc23)cc1 [Compound 156, 5-(4-chloro-2-cyclopropylpyridin-3-yl)-3-(4-(1-methyl-4-(trifluoromethyl)-1H-imidazol-2-yl)benzyl)-1H-pyrazolo[4,3-d]pyrimidine] |  | < 0.03 |  |  | < 0.1 | ≥ 10

Next, values leading:

IC50 ([1]; viability) [µM] | IC50 (USP1-UAF1) [µM] | IC50 (monoubiquitinated PCNA) [µM] | IC50 (monoubiquitinated PCNA; Homo sapiens) [µM] | IC50 [1, 3] [µM] | IC50 [2] [µM] | Compound
0.1 to 0.25 | 0.03 to 0.1 | 0.1 to 0.25 |  |  |  | COc1ncnc(C2CC2)c1-c1ncc2[nH]cc([C@@](C)(O)c3ccc(-c4nc(C(F)(F)F)cn4C)cc3)c2n1 (single isomer, unassigned) [Compound 4]
0.25 to 10 | 0.1 to 10 |  | 0.1 to 0.25 |  |  | COc1ncnc(C2CC2)c1-c1ncc2[nH]cc([C@@](C)(O)c3ccc(-c4nc(C(F)(F)F)cn4C)cc3)c2n1 (single isomer, unassigned) [Compound 76]
 | < 0.03 |  | < 0.1 |  |  | COc1ncnc(C2CC2)c1-c1ncc2c(n1)c(Cc1ccc(-c3nc(C(F)(F)F)cn3C3CC3)cc1)cn2C [Compound 25]
 | 0.1 to 10 |  |  | 0.25 to 10 | ≥ 10 | CC(C)n1cc(C(F)(F)F)nc1-c1ccc(C(O)c2c[nH]c3cnc(-c4cccnc4OC(F)F)nc23)cc1 (centres unmarked) [Compound 52, [2-[2-(difluoromethoxy)-3-pyridyl]-5H-pyrrolo[3,2-d]pyrimidin-7-yl]-[4-[1-isopropyl-4-(trifluoromethyl)imidazol-2-yl]phenyl]methanol]
 | 0.1 to 10 |  |  | 0.25 to 10 | 0.25 to 10 | COc1ncnc(C2CC2)c1-c1ncc2[nH]cc(C(O)c3ccc(-c4nc(C(F)(F)F)cn4C(C)C)cc3)c2n1 (centres unmarked) [Compound 59, [2-(4-cyclopropyl-6-methoxy-pyrimidin-5-yl)-5H-pyrrolo[3,2-d]pyrimidin-7-yl]-[4-[1-isopropyl-4-(trifluoromethyl)imidazol-2-yl]phenyl]methanol]
 | ≥ 10 |  |  | ≥ 10 | ≥ 10 | CCn1c(C(F)(F)F)cnc1-c1ccc(C(O)c2c[nH]c3cnc(-c4c(OC)ncnc4C4CC4)nc23)cc1 (centres unmarked) [Compound 75]
 | 0.1 to 10 |  |  | 0.25 to 10 | ≥ 10 | COCCc1[nH]c2cnc(-c3c(OC)ncnc3C3CC3)nc2c1C(O)c1ccc(-c2nc(C(F)(F)F)cn2C)cc1 (centres unmarked) [Compound 109, [2-(4-cyclopropyl-6-methoxy-pyrimidin-5-yl)-6-(2-methoxyethyl)-5H-pyrrolo[3,2-d]pyrimidin-7-yl]-[4-[1-methyl-4-(trifluoromethyl)imidazol-2-yl]phenyl]methanol]
 | < 0.03 |  |  | < 0.1 | ≥ 10 | COc1ncnc(C2CC2)c1-c1ncc2[nH]cc(C(C)c3ccc(-c4nc(C(F)(F)F)cn4C)cc3)c2n1 (centres unmarked) [Compound 128]
 | 0.03 to 0.1 |  |  | 0.1 to 0.25 | 0.25 to 10 | COc1ncnc(C2CC2)c1-c1ncc2[nH]cc(C(c3ccc(-c4nc(C(F)(F)F)cn4C)cc3)C(C)C)c2n1 (centres unmarked) [Compound 145]
 | < 0.03 |  |  | < 0.1 | ≥ 10 | Cn1cc(C(F)(F)F)nc1-c1ccc(Cc2c[nH]c3cnc(-c4c(OC5CC5)ncnc4C4CC4)nc23)cc1 [Compound 155]
 | < 0.03 |  |  | < 0.1 | ≥ 10 | Cn1cc(C(F)(F)F)nc1-c1ccc(Cc2c[nH]c3cnc(-c4c(OCF)ncnc4C4CC4)nc23)cc1 [Compound 173, 2-[4-cyclopropyl-6-(fluoromethoxy)pyrimidin-5-yl]-7-[[4-[1-methyl-4-(trifluoromethyl)imidazol-2-yl]phenyl]methyl]-5H-pyrrolo[3,2-d]pyrimidine]
 | < 0.03 |  |  | < 0.1 | 0.25 to 10 | COc1ncnc(C2CC2)c1-c1nc(Cl)c2[nH]cc(Cc3ccc(-c4nc(C(F)(F)F)cn4C)cc3)c2n1 [Compound 187, 4-chloro-2-(4-cyclopropyl-6-methoxy-pyrimidin-5-yl)-7-[[4-[1-methyl-4-(trifluoromethyl)imidazol-2-yl]phenyl]methyl]-5H-pyrrolo[3,2-d]pyrimidine]
